In test [1] the target is GST-tagged KRAS-G12D (2-169) (Homo sapiens, UniProt P01116, G12D). Kind of test: Nucleotide exchange assay (NEA), SOS-mediated, HTRF, KRAS G12D. The class given is biochemical. Particulars: Table 4; IC50 extracted at 30 min; 20 nM SOScat; read-out: NEA G12D IC50. A digest of the protocol:
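SOS1cat-driven loading of fluorescent GTP-DY-647P1 (150 nM) onto GST-KRAS-G12D (2-169, 0.25 nM) read by time-resolved FRET; SOScat 20 nM, compound preincubated with KRAS 1 h at RT. Signal blanked to no-SOS reactions, normalized to DMSO; IC50 fitted from the 30-min read.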
For orientation: Time-resolved FRET reads energy transfer from a long-lived donor to a nearby acceptor.

Test [2] concerns the target GST-tagged KRAS-G12V (2-169) (Homo sapiens, UniProt P01116, G12V). The test can be described thus: Nucleotide exchange assay (NEA), SOS-mediated, HTRF, KRAS G12V. To be noted: Table 4; IC50 extracted at 90 min; 80 nM SOS. The class given is biochemical. A digest of the protocol: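 Exchange onto fluorescent GTP-DY-647P1 (150 nM final) catalysed by 80 nM SOS1cat was followed by Tb-anti-GST HTRF at RT for up to 90 min, after 1 h compound pre-incubation with 0.25 nM GST-tagged KRAS-G12V (2-169), pH 7.3. DMSO = 0%, no-SOS blank = 100%; 4-parameter IC50 taken at 90 min.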

Test [3] concerns phospho-ERK in GP2D (KRAS-G12D) cells. Kind of test: pERK In Cell Western (ICW) assay (Method B), GP2D. The class given is cell-based. A digest of the protocol:
(§1)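 In-cell western read-out: phospho-ERK (800 nm) normalized to DRAQ5 (700 nm) per well, expressed as percent of blank control, IC50 from 4-parameter variable-slope fit. Compounds were applied as ½-log 9-point series for 3 h at 37 °C to cells plated the previous day.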

The subject of test [4] is phospho-ERK in SW620 (KRAS-G12V) cells. The test can be described thus: pERK In Cell Western (ICW) assay (Method B), SW620. It is filed as cell-based. A digest of the protocol:
as §1

Where [5] appears, read: Homo sapiens, SW-620, 3 h, Table 4.

pIC50: −log10 of the molar value.

GST-tagged KRAS-G12D (2-169), sequence (P01116 2-169 isoform P01116-2 G12D): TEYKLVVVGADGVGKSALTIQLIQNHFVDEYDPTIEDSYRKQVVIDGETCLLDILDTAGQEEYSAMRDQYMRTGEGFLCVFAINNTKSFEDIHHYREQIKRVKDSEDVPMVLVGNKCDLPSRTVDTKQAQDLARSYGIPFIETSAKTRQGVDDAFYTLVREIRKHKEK
GST-tagged KRAS-G12V (2-169), sequence (P01116 2-169 isoform P01116-2 G12V): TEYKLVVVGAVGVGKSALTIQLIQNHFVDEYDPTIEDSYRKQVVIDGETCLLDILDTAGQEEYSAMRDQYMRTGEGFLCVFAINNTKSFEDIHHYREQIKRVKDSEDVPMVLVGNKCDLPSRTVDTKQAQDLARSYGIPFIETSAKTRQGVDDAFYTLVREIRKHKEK

`CC(C#N)N(CC(F)F)c1nc(OC[C@@]23CCCN2C[C@H](F)C3)nc(N2CC3(C2)SCc2sc(N)c(C#N)c23)n1` (stereo partly drawn) [Compound 258, 2-amino-1′-[4-[1-cyanoethyl(2,2-difluoroethyl)amino]-6-[[(2R,8S)-2-fluoro-1,2,3,5,6,7-hexahydropyrrolizin-8-yl]methoxy]-1,3,5-triazin-2-yl]spiro[6H-thieno[2,3-c]thiophene-4,3′-azetidine]-3-carbonitrile]: the negative logarithm of the IC50 (pIC50) (usually the negative decadic logarithm of the IC50, by convention in mol/L) in test [1] is more than 8.00; in test [2], more than 8.00; in test [3] (GP2d, 3 h, Table 4), 7.00 to 8.00; in test [4] (setting [5]) it was 7.00 to 8.00.

In the case of `CCN(c1nc(OC[C@@]23CCCN2C[C@H](F)C3)nc(N2CC3(C2)SCc2sc(N)c(C#N)c23)n1)[C@@H](C)c1cccnc1N` [Compound 139B, 2-amino-1′-[4-[[(1*)-1-(2-amino-3-pyridyl)ethyl]-ethyl-amino]-6-[[(2R,8S)-2-fluoro-1,2,3,5,6,7-hexahydropyrrolizin-8-yl]methoxy]-1,3,5-triazin-2-yl]spiro[6H-thieno[3,4-b]thiophene-4,3′-azetidine]-3-carbonitrile], the pIC50 in test [1] is more than 8.00; in test [2] it was more than 8.00; in test [3] (GP2d, 3 h, Table 4) it was 7.00 to 8.00; in test [4] (setting [5]), 7.00 to 8.00.

Regarding `N#Cc1c(N)sc2c1C1(CCC2)CN(c2nc(OC[C@@]34CCCN3C[C@H](F)C4)nc(N3CCCC(C#N)CC3)n2)C1` (stereo partly drawn) [Compound 39, 2-amino-1′-[4-(4-cyanoazepan-1-yl)-6-[[(2R,8S)-2-fluoro-1,2,3,5,6,7-hexahydropyrrolizin-8-yl]methoxy]-1,3,5-triazin-2-yl]spiro[6,7-dihydro-5H-benzothiophene-4,3′-azetidine]-3-carbonitrile], the pIC50 in test [1] is 7.00 to 8.00; in test [2] it was 7.00 to 8.00; in test [3] (GP2d, 3 h, Table 4), 4.70 to 6.00; in test [4] (setting [5]), 4.70 to 6.00.

As for `CC(CO)N(c1nc(OC[C@@]23CCCN2C[C@H](F)C3)nc(N2CC3(C2)SCc2sc(N)c(C#N)c23)n1)C1(C#N)CC1` (stereo partly drawn) [Compound 262, 2-amino-1′-[4-[(1-cyanocyclopropyl)-(2-hydroxy-1-methyl-ethyl)amino]-6-[[(2R,8S)-2-fluoro-1,2,3,5,6,7-hexahydropyrrolizin-8-yl]methoxy]-1,3,5-triazin-2-yl]spiro[6H-thieno[3,4-b]thiophene-4,3′-azetidine]-3-carbonitrile], the pIC50 in test [1] is more than 8.00; in test [2] it was more than 8.00; in test [3] (GP2d, 3 h, Table 4) it was 7.00 to 8.00; in test [4] (setting [5]), 7.00 to 8.00.

Consider `C[C@@]1(O)CCCN(c2nc(OCC3(CN4CCOCC4)CC3)nc(N3CC4(C3)c3c(sc(N)c3C#N)C[C@@H]4F)n2)C1` [Compound 68, (5S)-2-amino-5-fluoro-1′-[4-[(3R)-3-hydroxy-3-methyl-1-piperidyl]-6-[[1-(morpholinomethyl)cyclopropyl]methoxy]-1,3,5-triazin-2-yl]spiro[5,6-dihydrocyclopenta[b]thiophene-4,3′-azetidine]-3-carbonitrile], for which the pIC50 in test [1] was more than 8.00; in test [2], 7.00 to 8.00; in test [3] (GP2d, 3 h, Table 4), 6.00 to 7.00; in test [4] (setting [5]), 6.00 to 7.00.

Take `CN(Cc1nsnc1N)c1nc(OC[C@@]23CCCN2C[C@H](F)C3)nc(N2CC3(CCc4sc(N)c(C#N)c43)C2)n1` [Compound 166, 2-amino-1′-[4-[(4-amino-1,2,5-thiadiazol-3-yl)methyl-methyl-amino]-6-[[(2R,8S)-2-fluoro-1,2,3,5,6,7-hexahydropyrrolizin-8-yl]methoxy]-1,3,5-triazin-2-yl]spiro[5,6-dihydrocyclopenta[b]thiophene-4,3′-azetidine]-3-carbonitrile]: the pIC50 in test [1] was 7.00 to 8.00; in test [2], more than 8.00; in test [3] (GP2d, 3 h, Table 4) it was 6.00 to 7.00; in test [4] (setting [5]) it was 7.00 to 8.00.

Consider `N#Cc1c(N)sc2c1C1(CC2)CN(c2nc(OC[C@@]34CCCN3C[C@H](F)C4)nc(N3CCCCC3C(N)=O)n2)C1` (stereo partly drawn) [Compound 40, 1-[4-(2-amino-3-cyano-spiro[5,6-dihydrocyclopenta[b]thiophene-4,3′-azetidine]-1′-yl)-6-[[(2R,8S)-2-fluoro-1,2,3,5,6,7-hexahydropyrrolizin-8-yl]methoxy]-1,3,5-triazin-2-yl]piperidine-2-carboxamide], for which the pIC50 was 6.00 to 7.00 in test [1]; 4.70 to 6.00 in test [2]; 4.70 to 6.00 in test [3] (GP2d, 3 h, Table 4); not above 4.70 in test [4] (setting [5]).

Consider `CCN(c1nc(OCC23CCC(COC2)N3)nc(N2CC3(C2)SCc2sc(N)c(C#N)c23)n1)[C@H](C)c1cccnc1N` (stereo partly drawn) [Compound 204, 1-(4-((3-oxa-8-azabicyclo[3.2.1]octan-1-yl)methoxy)-6-(((R)-1-(2-aminopyridin-3-yl)ethyl)(ethyl)amino)-1,3,5-triazin-2-yl)-2′-amino-6′H-spiro[azetidine-3,4′-thieno[3,4-b]thiophene]-3′-carbonitrile], for which the pIC50 in test [1] was 7.00 to 8.00; in test [2] it was more than 8.00; in test [3] (GP2d, 3 h, Table 4) it was 6.00 to 7.00; in test [4] (setting [5]) it was 7.00 to 8.00.

Turning to `CN(Cc1cncs1)c1nc(OC[C@@]23CCCN2C[C@H](F)C3)nc(N2CC3(CCc4sc(N)c(C#N)c43)C2)n1` [Compound 152, 2-amino-1′-[4-[[(2R,8S)-2-fluoro-1,2,3,5,6,7-hexahydropyrrolizin-8-yl]methoxy]-6-[methyl(thiazol-5-ylmethyl)amino]-1,3,5-triazin-2-yl]spiro[5,6-dihydrocyclopenta[b]thiophene-4,3′-azetidine]-3-carbonitrile], the pIC50 in test [1] is 4.70 to 6.00; in test [2] it was 6.00 to 7.00; in test [3] (GP2d, 3 h, Table 4), 4.70 to 6.00; in test [4] (setting [5]) it was 4.70 to 6.00.

`CC(c1nsnc1N)N(C)c1nc(OC[C@@]23CCCN2C[C@H](F)C3)nc(N2CC3(CCc4sc(N)c(C#N)c43)C2)n1` (stereo partly drawn) [Compound 170, -amino-1′-[4-[1-(4-amino-1,2,5-thiadiazol-3-yl)ethyl-methyl-amino]-6-[[(2R,8S)-2-fluoro-1,2,3,5,6,7-hexahydropyrrolizin-8-yl]methoxy]-1,3,5-triazin-2-yl]spiro[5,6-dihydrocyclopenta[b]thiophene-4,3′-azetidine]-3-carbonitrile]: the pIC50 in test [1] was 7.00 to 8.00; in test [2], more than 8.00; in test [3] (GP2d, 3 h, Table 4) it was 6.00 to 7.00; in test [4] (setting [5]), 7.00 to 8.00.

Regarding `CC(c1cccnc1N)N(C)c1nc(OC[C@@]23CCCN2C[C@H](F)C3)nc(N2CC3(CCc4sc(N)c(C#N)c43)C2)n1` (single isomer, unassigned) [Compound 100B, 2-amino-1′-[4-[[(1*)-1-(2-amino-3-pyridyl)ethyl]-methyl-amino]-6-[[(2R,8S)-2-fluoro-1,2,3,5,6,7-hexahydropyrrolizin-8-yl]methoxy]-1,3,5-triazin-2-yl]spiro[5,6-dihydrocyclopenta[b]thiophene-4,3′-azetidine]-3-carbonitrile], the pIC50 in test [1] is 7.00 to 8.00; in test [2] it was more than 8.00; in test [3] (Table 4, 3 hours), 6.00 to 7.00; in test [4] (Table 4, 3 hours), 7.00 to 8.00.

On to `C[C@H](c1cccnc1N)N(CCF)c1nc(OC[C@@]23CCCN2C[C@H](F)C3)nc(N2CC3(C2)SCc2sc(N)c(C#N)c23)n1` [Compound 180, 2′-amino-1-(4-(((R)-1-(2-aminopyridin-3-yl)ethyl)(2-fluoroethyl)amino)-6-(((2R,7aS)-2-fluorotetrahydro-1H-pyrrolizin-7a(5H)-yl)methoxy)-1,3,5-triazin-2-yl)-6′H-spiro[azetidine-3,4′-thieno[3,4-b]thiophene]-3′-carbonitrile], for which the negative-log IC50 (pIC50) in test [1] is more than 8.00; in test [2] it was more than 8.00; in test [3] (GP2d, 3 h, Table 4), more than 8.00; in test [4] (setting [5]), more than 8.00.

For the origin of these results see patent US12421254B2, “KRAS modulators and uses thereof” (Quanta Therapeutics, Inc., priority 2023, dated 2025).
